Data as given in PubChem BioAssay AID1963841 (Molecular Pharmacology Branch, DTP, NCI, 2024).

Test system: 439559-082-T-J2-PDC spheroid viability
Test: Anticancer human tumor 439559-082-T-J2-PDC patient-derived colon adenocarcinoma cell line growth inhibition [POLQ]
Settings: spheroids with HUVEC and MSC; for IC50: curve of first compound; for viability, T/C: stronger effect = lower value
In short: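 Complex spheroid viability model combining PDC tumour cells with endothelial (HUVEC) and MSC stromal cells. Novobiocin, ART-558 or RP6685 were tested singly and in combination with standard and investigational anticancer drugs. Each was titrated in half-log steps from near clinical Cmax, or from 10 microM where Cmax was unknown.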

[1] = second compound 0.0316 µM, first compound 0.0316 µM
[2] = second compound 0.0316 µM, first compound 0.1 µM
[3] = second compound 0.0316 µM, first compound 0.316 µM
[4] = second compound 0.0316 µM, first compound 1 µM
[5] = second compound 0.0316 µM, first compound 3.16 µM
[6] = second compound 0.0316 µM, first compound 10 µM
[7] = second compound 0.1 µM, first compound 0.0316 µM
[8] = second compound 0.1 µM, first compound 0.1 µM
[9] = second compound 0.1 µM, first compound 0.316 µM
[10] = second compound 0.1 µM, first compound 1 µM
[11] = second compound 0.1 µM, first compound 3.16 µM
[12] = second compound 0.1 µM, first compound 10 µM
[13] = second compound 0.316 µM, first compound 0.0316 µM
[14] = second compound 0.316 µM, first compound 0.1 µM
[15] = second compound 0.316 µM, first compound 0.316 µM
[16] = second compound 0.316 µM, first compound 1 µM
[17] = second compound 0.316 µM, first compound 3.16 µM
[18] = second compound 0.316 µM, first compound 10 µM
[19] = second compound 1 µM, first compound 0.0316 µM
[20] = second compound 1 µM, first compound 0.1 µM
[21] = second compound 1 µM, first compound 0.316 µM
[22] = second compound 1 µM, first compound 1 µM
[23] = second compound 1 µM, first compound 3.16 µM
[24] = second compound 1 µM, first compound 10 µM
[25] = second compound 3.16 µM, first compound 0.0316 µM
[26] = second compound 3.16 µM, first compound 0.1 µM
[27] = second compound 3.16 µM, first compound 0.316 µM
[28] = second compound 3.16 µM, first compound 1 µM
[29] = second compound 3.16 µM, first compound 3.16 µM
[30] = second compound 3.16 µM, first compound 10 µM
[31] = second compound 10 µM, first compound 0.0316 µM
[32] = second compound 10 µM, first compound 0.1 µM
[33] = second compound 10 µM, first compound 0.316 µM
[34] = second compound 10 µM, first compound 1 µM
[35] = second compound 10 µM, first compound 3.16 µM
[36] = second compound 10 µM, first compound 10 µM
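Further: spheroids exposed to compounds for seven days before readout.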
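Wherever viability, T/C is given: 100% = DMSO vehicle control viability.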

With `CNCc1ccc(-c2[nH]c3cc(F)cc4c3c2CCNC4=O)cc1` + COC1C(OC(N)=O)C(O)C(Oc2ccc3c(O)c(NC(=O)c4ccc(O)c(CC=C(C)C)c4)c(=O)oc3c2C)OC1(C)C the IC50 (second compound 0.0316 µM) was > 10 µM, the IC50 (second compound 0.1 µM) was > 10 µM and the IC50 (second compound 0.316 µM) was > 10 µM. The IC50 (second compound 1 µM) was > 10 µM, the IC50 (second compound 3.16 µM) was > 10 µM and the IC50 (second compound 10 µM) was > 10 µM. The viability, T/C [1] was 103%, the viability, T/C [2] was 98.7% and the viability, T/C [3] was 99.4%. It also gave a viability, T/C [4] of 101%, a viability, T/C [5] of 106% and a viability, T/C [6] of 102%. It also gave a viability, T/C [7] of 101%, a viability, T/C [8] of 107% and a viability, T/C [9] of 91.7%. For the same molecule, the viability, T/C [10] was 99.7%, the viability, T/C [11] was 105% and the viability, T/C [12] was 108%. The viability, T/C [13] was 104%, the viability, T/C [14] was 96% and the viability, T/C [15] was 98.3%. The viability, T/C [16] was 108%, the viability, T/C [17] was 110% and the viability, T/C [18] was 105%. For the same molecule, the viability, T/C [19] was 108%, the viability, T/C [20] was 103% and the viability, T/C [21] was 106%. The viability, T/C [22] was 98.1%, the viability, T/C [23] was 111% and the viability, T/C [24] was 108%. The viability, T/C [25] was 108%, the viability, T/C [26] was 103% and the viability, T/C [27] was 97.4%. It also gave a viability, T/C [28] of 95.8%, a viability, T/C [29] of 114% and a viability, T/C [30] of 105%. For the same molecule, the viability, T/C [31] was 99.5%, the viability, T/C [32] was 93.7% and the viability, T/C [33] was 95.4%. For the same molecule, the viability, T/C [34] was 104%, the viability, T/C [35] was 115% and the viability, T/C [36] was 98.4%.

For `CC1COCCN1c1cc(C2(S(C)(=N)=O)CC2)nc(-c2ccnc3[nH]ccc23)n1` (stereo not drawn) + COC1C(OC(N)=O)C(O)C(Oc2ccc3c(O)c(NC(=O)c4ccc(O)c(CC=C(C)C)c4)c(=O)oc3c2C)OC1(C)C, the IC50 (second compound 0.0316 µM) was > 10 µM, the IC50 (second compound 0.1 µM) was > 10 µM and the IC50 (second compound 0.316 µM) was > 10 µM. For the same molecule, the IC50 (second compound 1 µM) was > 10 µM, the IC50 (second compound 3.16 µM) was > 10 µM and the IC50 (second compound 10 µM) was > 10 µM. It also gave a viability, T/C [1] of 97.4%, a viability, T/C [2] of 98.2% and a viability, T/C [3] of 94%. For the same molecule, the viability, T/C [4] was 101%, the viability, T/C [5] was 89.8% and the viability, T/C [6] was 65.8%. It also gave a viability, T/C [7] of 100%, a viability, T/C [8] of 101% and a viability, T/C [9] of 105%. For the same molecule, the viability, T/C [10] was 92.6%, the viability, T/C [11] was 89.7% and the viability, T/C [12] was 66.4%. It also gave a viability, T/C [13] of 101%, a viability, T/C [14] of 91.2% and a viability, T/C [15] of 93.5%. It also gave a viability, T/C [16] of 94.8%, a viability, T/C [17] of 90.2% and a viability, T/C [18] of 67%. The viability, T/C [19] was 95%, the viability, T/C [20] was 99.3% and the viability, T/C [21] was 91.7%. The viability, T/C [22] was 86.6%, the viability, T/C [23] was 88.8% and the viability, T/C [24] was 66.8%. For the same molecule, the viability, T/C [25] was 94.7%, the viability, T/C [26] was 96.7% and the viability, T/C [27] was 89.7%. For the same molecule, the viability, T/C [28] was 90.8%, the viability, T/C [29] was 87.2% and the viability, T/C [30] was 64%. It also gave a viability, T/C [31] of 99.7%, a viability, T/C [32] of 97.4% and a viability, T/C [33] of 103%. It also gave a viability, T/C [34] of 89.4%, a viability, T/C [35] of 86.1% and a viability, T/C [36] of 63.9%.

In the case of `C=CC(=O)N1CCN(c2nc(=O)n(-c3c(C)ccnc3C(C)C)c3nc(-c4c(O)cccc4F)c(F)cc23)C(C)C1` (stereo not drawn) + Nc1ccc(C#CCN(C(=O)Cc2ncc(C(F)(F)F)cc2C(F)(F)F)c2ccc(F)cc2)nn1, the IC50 (second compound 0.0316 µM) is reported as > 10 µM, the IC50 (second compound 0.1 µM) is reported as > 10 µM and the IC50 (second compound 0.316 µM) is reported as > 10 µM. For the same molecule, the IC50 (second compound 1 µM) was > 10 µM, the IC50 (second compound 3.16 µM) was > 10 µM and the IC50 (second compound 10 µM) was > 10 µM. For the same molecule, the viability, T/C [1] was 105%, the viability, T/C [2] was 100% and the viability, T/C [3] was 91.2%. For the same molecule, the viability, T/C [4] was 94.5%, the viability, T/C [5] was 123% and the viability, T/C [6] was 104%. It also gave a viability, T/C [7] of 109%, a viability, T/C [8] of 88.9% and a viability, T/C [9] of 83.6%. The viability, T/C [10] was 98.1%, the viability, T/C [11] was 115% and the viability, T/C [12] was 99.2%. The viability, T/C [13] was 97.4%, the viability, T/C [14] was 95.7% and the viability, T/C [15] was 99.1%. For the same molecule, the viability, T/C [16] was 99.1%, the viability, T/C [17] was 131% and the viability, T/C [18] was 100%. It also gave a viability, T/C [19] of 91.6%, a viability, T/C [20] of 97.1% and a viability, T/C [21] of 86.3%. The viability, T/C [22] was 100%, the viability, T/C [23] was 123% and the viability, T/C [24] was 99.1%. It also gave a viability, T/C [25] of 100%, a viability, T/C [26] of 90.3% and a viability, T/C [27] of 99.5%. The viability, T/C [28] was 98.7%, the viability, T/C [29] was 101% and the viability, T/C [30] was 89.5%. It also gave a viability, T/C [31] of 99.1%, a viability, T/C [32] of 96.1% and a viability, T/C [33] of 87.2%. It also gave a viability, T/C [34] of 94.7%, a viability, T/C [35] of 116% and a viability, T/C [36] of 95.3%.

For `O=C(Nc1ccc(O)c(NS(=O)(=O)c2ccc(F)cc2)c1)c1ccc(-c2ccccc2)cc1` + Nc1ccc(C#CCN(C(=O)Cc2ncc(C(F)(F)F)cc2C(F)(F)F)c2ccc(F)cc2)nn1, the IC50 (second compound 0.0316 µM) was > 10 µM, the IC50 (second compound 0.1 µM) was > 10 µM and the IC50 (second compound 0.316 µM) was > 10 µM. The IC50 (second compound 1 µM) was > 10 µM, the IC50 (second compound 3.16 µM) was > 10 µM and the IC50 (second compound 10 µM) was > 10 µM. It also gave a viability, T/C [1] of 93%, a viability, T/C [2] of 97.5% and a viability, T/C [3] of 98.8%. For the same molecule, the viability, T/C [4] was 93.3%, the viability, T/C [5] was 96.3% and the viability, T/C [6] was 103%. The viability, T/C [7] was 99%, the viability, T/C [8] was 103% and the viability, T/C [9] was 92.9%. For the same molecule, the viability, T/C [10] was 97%, the viability, T/C [11] was 111% and the viability, T/C [12] was 106%. It also gave a viability, T/C [13] of 105%, a viability, T/C [14] of 104% and a viability, T/C [15] of 94.8%. For the same molecule, the viability, T/C [16] was 96.9%, the viability, T/C [17] was 87.9% and the viability, T/C [18] was 92.5%. For the same molecule, the viability, T/C [19] was 93.5%, the viability, T/C [20] was 103% and the viability, T/C [21] was 89.7%. It also gave a viability, T/C [22] of 90.7%, a viability, T/C [23] of 99.6% and a viability, T/C [24] of 96.8%. It also gave a viability, T/C [25] of 89.6%, a viability, T/C [26] of 107% and a viability, T/C [27] of 100%. The viability, T/C [28] was 99.6%, the viability, T/C [29] was 94.2% and the viability, T/C [30] was 91.3%. The viability, T/C [31] was 114%, the viability, T/C [32] was 101% and the viability, T/C [33] was 102%. The viability, T/C [34] was 91.5%, the viability, T/C [35] was 113% and the viability, T/C [36] was 101%.
